According to patent US20120264817A1, “SOLUBILIZED FORMULATION OF DOCETAXEL WITHOUT TWEEN 80” (priority 2007, published 2012):

Tests used:
[1] = solubility studies with docetaxel in solvents/excipients; settings: glycofurol, organic solvent or mixture
Description: In some instances a solubilizer can provide sufficient degree of dissolution that a separate hydrotrope or other solubilization aid is not needed, but this is generally not the case (i.e. a separate hydrotrope is usually desirable). […] The concentration of drug in solubilizer varies depending on the lipophilicity of drug. […] We have conducted the solubility studies in these excipients to understand how different excipients containing different functional groups are contributing to the solubility of docetaxel. A solubilizer can also act as a hydrotrope (on dilution with infusion fluid) if it is used in the sufficiently large quantities. […] In the table below and the rest of this specification, the terms “solubilizer” and “hydrotrope” will be used with reference to concentrates (both initial and intermediate) unless specifically indicated otherwise or the context so requires.

[2] = physical stability (onset of precipitation) of initial and final dilutions of docetaxel formulations; format: physicochemical
Method: Observations: • 1. The concentrate turns waxy and viscous when stored at temperature below the room temperature, i.e., 22° C. To disperse this viscous mass, a large amount of WFI is needed to make the system suitable for subsequent dilution. So the first step of making a 10 mg/ml solution cannot be achieved with this liquid concentrate. • 2. To achieve a primary dilution of docetaxel of 10 mg/ml, the above concentrate was heated in a water bath to form a viscous liquid, and then diluted with 8 ml of water for injection. The primary dilution is stable for a period of not less than 8 hours, which was a stability condition stipulated in the innovators product. This solution, when further diluted with NS, achieves the targeted concentration range of 0.3-0.74 mg/ml of docetaxel in the final solution for administration. This solution is stable for a period of 24 hours as opposed to the stability of 4 hours with innovators product. In this example, we have achieved the target concentration of docetaxel for administration without the presence of polysorbate 80. • 3.
The concentrate is liquid at room temperature and turned waxy only when stored at 5° C. or below, but turned back to free flowing liquid in 5 minutes when kept at room temperature. • 2. During the initial dilution step to get 10 mg/ml, the contents of the vial turned into a thixotropic liquid within the vial. […]

[3] = docetaxel as marketed by Sanofi-Aventis; cited from earlier work

solubility [1]: ~200 mg/mL | behaviour on dilution to administration concentrations ([2]; about 10 mg/ml solution in glycofurol, diluted with IV fluids): will not precipitate out | behaviour on dilution to administration concentrations ([2]; about 200 mg/ml liquid concentrate in glycofurol, diluted with water): precipitates out
SMILES: CC(=O)O[C@@]12CO[C@@H]1C[C@H](O)[C@@]1(C)C(=O)[C@H](O)C3=C(C)[C@@H](OC(=O)[C@H](O)[C@@H](NC(=O)OC(C)(C)C)c4ccccc4)C[C@@](O)([C@@H](OC(=O)c4ccccc4)[C@H]21)C3(C)C [docetaxel, (2R,3S)—N-carboxy-3-phenylisoserine, N-tert-butyl ester, 13-ester with 5beta-20-epoxy-1,2α,4,7β,10β,13α-hexahyciroxytax-11-en-9-one 4-acetate 2-benzoate, trihydrate]
lipophilicity [3]: highly lipophilic | solubility in water [3]: practically insoluble in water
